Source: patent US10112937B2, “P2X7 modulators and methods of use” (Janssen Pharmaceutica NV, priority 2013, dated 2018)

Key:
Assay type in all cases: cell-based
[1] = biological target: T1, human P2X7 (Homo sapiens (Human), UniProt Q99572); experiment: P2X7 antagonism in human PBMCs (IL-1β release after LPS + Bz-ATP, ELISA); settings: human PBMCs; for PBMC 1 μM (% control): test compound 1 μM
[2] = biological target: T1, human P2X7; experiment: Ca2+ flux (FLIPR) in 1321N1 cells expressing recombinant human P2X7;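 note: cells loaded with Calcium-4 dye, preincubated with test compound for 30 min, fluorescence change read 180 s after agonist addition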
Method: (§1) P2X7 Antagonism in Recombinant Human P2X7 Cells or Recombinant Rat P2X7 Cells: (a) Ca^2+ Flux and (b) Radioligand Binding
(§2) 1321N1 cells expressing the recombinant human or rat P2X7 channel was cultured in HyQ DME/(HyClone/Dulbecco's Modified Eagle Medium) high glucose supplemented with 10% Fetal Bovine Serum (FBS) and appropriate selection marker. Cells were seeded at a density of 25000 cells/well (96-well clear bottom black walled plates) in 100 μl volume/well. On the day of the experiment, cell plates were washed with assay buffer, containing (in mM): 130 NaCl, 2 KCl, 1 CaCl2, 1 MgCl2, 10 HEPES, 5 glucose; pH 7.40 and 300 mOs. After the wash, cells were loaded with the Calcium-4 dye (Molecular Device) and incubated in the dark for 60 minutes. Test compounds were prepared at 250× the test concentration in neat DMSO. Intermediate 96-well compound plates were prepared by transferring 1.2 μL of the compound into 300 μL of assay buffer. A further 3× dilution occurred when transferring 50 μL/well of the compound plate to 100 μL/well in the cell plate. Cells were incubated with test compounds and dye for 30 minutes. […] The fluorescence change was measured 180 seconds after adding the agonist.

[3] = biological target: rat P2X7 (Rattus norvegicus (Rat), UniProt Q64663); experiment: Ca2+ flux (FLIPR) in 1321N1 cells expressing recombinant rat P2X7;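 note: Calcium-4 dye fluorescence change read 180 s after agonist addition, with cells preincubated 30 min with compound and dye in 96-well plates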
rat P2X7, sequence (Q64663 whole entry): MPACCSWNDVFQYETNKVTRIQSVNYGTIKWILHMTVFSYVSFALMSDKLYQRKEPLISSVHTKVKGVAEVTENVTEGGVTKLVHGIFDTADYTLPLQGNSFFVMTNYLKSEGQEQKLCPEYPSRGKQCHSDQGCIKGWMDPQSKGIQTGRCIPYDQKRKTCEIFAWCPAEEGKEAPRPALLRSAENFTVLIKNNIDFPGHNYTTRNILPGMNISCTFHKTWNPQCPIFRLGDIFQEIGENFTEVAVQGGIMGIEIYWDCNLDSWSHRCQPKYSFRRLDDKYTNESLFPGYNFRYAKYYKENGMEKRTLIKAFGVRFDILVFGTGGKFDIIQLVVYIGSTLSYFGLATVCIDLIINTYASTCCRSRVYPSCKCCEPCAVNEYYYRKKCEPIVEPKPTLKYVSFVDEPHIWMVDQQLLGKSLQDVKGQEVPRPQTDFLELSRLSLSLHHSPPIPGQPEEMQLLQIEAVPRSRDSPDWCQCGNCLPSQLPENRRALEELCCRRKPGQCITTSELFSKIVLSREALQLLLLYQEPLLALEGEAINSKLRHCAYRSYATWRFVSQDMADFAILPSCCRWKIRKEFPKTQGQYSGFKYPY
Method: as §1, §2

[4] = 1321N1 cells, recombinant human P2X7, 250 μM BzATP
[5] = 1321N1 cells, recombinant rat P2X7, 250 μM BzATP
[6] = 10 μM test compound, LPS + Bz-ATP
[7] = Ca2+ flux, 250 μM BzATP, human P2X7 1321N1 cells
[8] = Ca2+ flux, 250 μM BzATP, rat P2X7 1321N1 cells

T1 sequence (Q99572 whole entry): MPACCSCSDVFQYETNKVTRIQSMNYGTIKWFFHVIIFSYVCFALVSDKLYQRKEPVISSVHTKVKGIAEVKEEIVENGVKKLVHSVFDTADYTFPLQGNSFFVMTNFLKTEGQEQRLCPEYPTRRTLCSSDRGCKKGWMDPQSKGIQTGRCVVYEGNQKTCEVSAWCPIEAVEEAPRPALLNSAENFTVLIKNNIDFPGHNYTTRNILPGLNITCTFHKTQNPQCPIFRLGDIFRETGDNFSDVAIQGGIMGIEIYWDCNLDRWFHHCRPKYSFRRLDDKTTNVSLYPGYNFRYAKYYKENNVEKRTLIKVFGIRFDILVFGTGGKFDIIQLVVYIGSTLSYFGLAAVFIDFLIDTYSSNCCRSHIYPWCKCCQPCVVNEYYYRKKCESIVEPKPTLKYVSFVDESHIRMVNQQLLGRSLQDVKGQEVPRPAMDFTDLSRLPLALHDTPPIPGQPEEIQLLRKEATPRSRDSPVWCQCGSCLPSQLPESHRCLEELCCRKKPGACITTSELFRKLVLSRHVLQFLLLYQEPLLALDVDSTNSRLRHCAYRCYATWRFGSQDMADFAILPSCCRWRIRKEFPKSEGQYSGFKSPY

Row | SMILES | PBMC 1 μM (% control) [1] [% control] | IC50 [2, 4] [µM] | IC50 [3, 5] [µM] | PBMC 10 μM (% control) ([1]; test compound 10 μM) | PBMC 10 μM (% control) [1, 6] [% control] | IC50 [2, 7] [µM] | IC50 [3, 8] [µM]
1 | O=C(c1cccc(C(F)(F)F)c1Cl)N1CCc2c(nnn2-c2ccccc2)C1 [Example 61, 5-{[2-Chloro-3-(trifluoromethyl)phenyl]carbonyl}-1-phenyl-4,5,6,7-tetrahydro-1H-[1,2,3]triazolo[4,5-c]pyridine] | −0.1 | 0.0027 | 1.87 | – | – | – | –
2 | O=C(c1cccc(C(F)(F)F)c1Cl)N1CCc2c(nnn2-c2cc(F)ccn2)C1 [Example 131, (2-Chloro-3-(trifluoromethyl)phenyl)(1-(4-fluoropyridin-2-yl)-6,7-dihydro-1H-[1,2,3]triazolo[4,5-c]pyridin-5(4H)-yl)methanone] | – | 0.0021 | 0.0304 | 8.3 | – | – | –
3 | CC(C)n1ccc(-n2nnc3c2CCN(C(=O)c2cccc(C(F)(F)F)c2F)[C@H]3C)n1 [Example 415, (S)-(2-fluoro-3-(trifluoromethyl)phenyl)(1-(1-isopropyl-1H-pyrazol-3-yl)-4-methyl-6,7-dihydro-1H-[1,2,3]triazolo[4,5-c]pyridin-5(4H)-yl)methanone] | – | – | – | – | 1.5 | 0.146 | 0.0129
4 | O=C(c1cccc(C(F)(F)F)c1Cl)N1CCc2c(ncn2-c2ccccc2)C1 [Example 2, (2-Chloro-3-(trifluoromethyl)phenyl)(1-phenyl-6,7-dihydro-1H-imidazo[4,5-c]pyridin-5(4H)-yl)methanone] | 7.9 | 0.0121 | 2.91 | – | – | – | –
5 | Cc1nccc(-n2nnc3c2CCN(C(=O)c2ccnc(C(F)(F)F)c2Cl)C3C)n1 (centres unmarked) [Example 399, (3-chloro-2-(trifluoromethyl)pyridin-4-yl)(4-methyl-1-(2-methylpyrimidin-4-yl)-6,7-dihydro-1H-[1,2,3]triazolo[4,5-c]pyridin-5(4H)-yl)methanone] | – | 1.72 | > 10 | 1.1 | – | – | –
6 | CCn1ccc(-n2nnc3c2CCN(C(=O)c2cccc(C(F)(F)F)c2Cl)[C@H]3C)n1 [Example 405, (S)-(2-chloro-3-(trifluoromethyl)phenyl)(1-(1-ethyl-1H-pyrazol-3-yl)-4-methyl-6,7-dihydro-1H-[1,2,3]triazolo[4,5-c]pyridin-5(4H)-yl)methanone] | – | – | – | – | −0.4 | 1.6 | 2.3
7 | Cc1c(C(=O)N2Cc3nnn(-c4ccn[nH]4)c3C[C@@H]2C)cccc1C(F)(F)F (single isomer, unassigned) [Example 347, (S*)-(6-methyl-1-(1H-pyrazol-3-yl)-6,7-dihydro-1H-[1,2,3]triazolo[4,5-c]pyridin-5(4H)-yl)(2-methyl-3-(trifluoromethyl)phenyl)methanone] | – | 1.2 | 0.324 | 2.0 | – | – | –
8 | C[C@H]1Cc2c(nnn2-c2ncc(F)cn2)CN1C(=O)c1cccc(C(F)(F)F)c1O [Example 426, (S)-(1-(5-fluoropyrimidin-2-yl)-6-methyl-6,7-dihydro-1H-[1,2,3]triazolo[4,5-c]pyridin-5(4H)-yl)(2-hydroxy-3-(trifluoromethyl)phenyl)methanone] | – | – | – | – | 113.2 | > 10 | > 10
9 | Cc1cc(-n2nnc3c2CCN(C(=O)c2ccnc(C(F)(F)F)c2Cl)[C@H]3C)ncc1F (single isomer, unassigned) [Example 372, (S*)-(3-chloro-2-(trifluoromethyl)pyridin-4-yl)(1-(5-fluoro-4-methylpyridin-2-yl)-4-methyl-6,7-dihydro-1H-[1,2,3]triazolo[4,5-c]pyridin-5(4H)-yl)methanone] | – | 1.63 | 8.73 | 1.3 | – | – | –
10 | CCOC(=O)C1c2ncn(-c3ccccn3)c2CCN1C(=O)c1cccc(C(F)(F)F)c1Cl (centres unmarked) [Example 24, Ethyl 5-(2-chloro-3-(trifluoromethyl)benzoyl)-1-(pyridin-2-yl)-4,5,6,7-tetrahydro-1H-imidazo[4,5-c]pyridine-4-carboxylate] | 2.9 | 0.0233 | 0.0262 | – | – | – | –
11 | O=C(c1ccc(Cl)cc1F)N1CCc2c(nnn2-c2ncccn2)C1 [Example 280, (4-chloro-2-fluorophenyl)(1-(pyrimidin-2-yl)-6,7-dihydro-1H-[1,2,3]triazolo[4,5-c]pyridin-5(4H)-yl)methanone] | – | 0.255 | 1.35 | 3.4 | – | – | –
12 | Cc1cc(-n2nnc3c2CCN(C(=O)c2cccc(OC(F)(F)F)c2F)C3C)ncc1F (centres unmarked) [Example 374, (2-fluoro-3-(trifluoromethoxy)phenyl)(1-(5-fluoro-4-methylpyridin-2-yl)-4-methyl-6,7-dihydro-1H-[1,2,3]triazolo[4,5-c]pyridin-5(4H)-yl)methanone] | – | > 10 | > 10 | 104.3 | – | – | –
13 | Cc1cc(-n2nnc3c2CCN(C(=O)c2cc(Cl)cc(C(F)(F)F)c2)[C@H]3C)ncc1F (single isomer, unassigned) [Example 363, (S*)-(3-chloro-5-(trifluoromethyl)phenyl)(1-(5-fluoro-4-methylpyridin-2-yl)-4-methyl-6,7-dihydro-1H-[1,2,3]triazolo[4,5-c]pyridin-5(4H)-yl)methanone] | – | > 10 | > 10 | 63.9 | – | – | –
14 | Cc1nccc(-n2nnc3c2CCN(C(=O)c2cccc(C(F)(F)F)c2Cl)C3C)n1 (centres unmarked) [Example 398, (2-chloro-3-(trifluoromethyl)phenyl)(4-methyl-1-(2-methylpyrimidin-4-yl)-6,7-dihydro-1H-[1,2,3]triazolo[4,5-c]pyridin-5(4H)-yl)methanone] | – | 0.538 | > 10 | 0.2 | – | – | –
15 | Cc1ccnc(-n2nnc3c2CCN(C(=O)c2cccc(OC(F)(F)F)c2F)C3C)c1 (centres unmarked) [Example 373, (2-fluoro-3-(trifluoromethoxy)phenyl)(4-methyl-1-(4-methylpyridin-2-yl)-6,7-dihydro-1H-[1,2,3]triazolo[4,5-c]pyridin-5(4H)-yl)methanone] | – | 1.66 | 10.1 | 17.2 | – | – | –
16 | Cc1cc(-n2nnc3c2CCN(C(=O)c2cc(Cl)cc(C(F)(F)F)c2)[C@@H]3C)ncc1F (single isomer, unassigned) [Example 362, (R*)-(3-chloro-5-(trifluoromethyl)phenyl)(1-(5-fluoro-4-methylpyridin-2-yl)-4-methyl-6,7-dihydro-1H-[1,2,3]triazolo[4,5-c]pyridin-5(4H)-yl)methanone] | – | > 10 | > 10 | 90.2 | – | – | –
17 | O=C(c1cccc(C(F)(F)F)c1F)N1CCc2c(nnn2-c2ncccn2)C1 [Example 66, 5-{[2-Fluoro-3-(trifluoromethyl)phenyl]carbonyl}-1-pyrimidin-2-yl-4,5,6,7-tetrahydro-1H-[1,2,3]triazolo[4,5-c]pyridine] | – | 0.0224 | 0.258 | 2.7 | – | – | –
18 | C[C@H]1Cc2c(nnn2-c2cc[nH]n2)CN1C(=O)c1ccnc(C(F)(F)F)c1F (single isomer, unassigned) [Example 424, (S*)-(3-fluoro-2-(trifluoromethyl)pyridin-4-yl)(6-methyl-1-(1H-pyrazol-3-yl)-6,7-dihydro-1H-[1,2,3]triazolo[4,5-c]pyridin-5(4H)-yl)methanone] | – | – | – | – | −11.2 | 0.014 | 0.0046
19 | C[C@H]1Cc2c(nnn2-c2ncc(F)cn2)CN1C(=O)c1cccc(OC(F)(F)F)c1F [Example 427, (S)-(2-fluoro-3-(trifluoromethoxy)phenyl)(1-(5-fluoropyrimidin-2-yl)-6-methyl-6,7-dihydro-1H-[1,2,3]triazolo[4,5-c]pyridin-5(4H)-yl)methanone] | – | – | – | – | −0.8 | 0.262 | 8.28
20 | C[C@H]1Cc2c(nnn2-c2cc[nH]n2)CN1C(=O)c1ccnc(C(F)(F)F)c1Cl (single isomer, unassigned) [Example 422, (S*)-(3-chloro-2-(trifluoromethyl)pyridin-4-yl)(6-methyl-1-(1H-pyrazol-3-yl)-6,7-dihydro-1H-[1,2,3]triazolo[4,5-c]pyridin-5(4H)-yl)methanone] | – | – | – | – | −9.6 | 0.0144 | 0.0031
21 | O=C(C1c2ncn(-c3ccccn3)c2CCN1C(=O)c1cccc(C(F)(F)F)c1Cl)N1CCC1 (centres unmarked) [Example 35, 4-(Azetidin-1-ylcarbonyl)-5-{[2-chloro-3-(trifluoromethyl)phenyl]carbonyl}-1-pyridin-2-yl-4,5,6,7-tetrahydro-1H-imidazo[4,5-c]pyridine] | – | 0.348 | 0.235 | – | – | – | –
22 | O=C(c1cccc(C(F)(F)F)c1Cl)N1CCc2c(nnn2-c2ccn[nH]2)C1 [Example 68, 5-{[2-Chloro-3-(trifluoromethyl)phenyl]carbonyl}-1-(1H-pyrazol-5-yl)-4,5,6,7-tetrahydro-1H-[1,2,3]triazolo[4,5-c]pyridine] | – | 0.0394 | 0.21 | – | – | – | –
23 | CCOC(=O)C1c2ncn(-c3cnccn3)c2CCN1C(=O)c1cccc(Cl)c1Cl (centres unmarked) [Example 29, Ethyl 5-[(2,3-dichlorophenyl)carbonyl]-1-pyrazin-2-yl-4,5,6,7-tetrahydro-1H-imidazo[4,5-c]pyridine-4-carboxylate] | – | 0.062 | 2.5 | – | – | – | –
24 | Cc1ccnc(-n2nnc3c2CCN(C(=O)c2cccc(OC(F)(F)F)c2)C3C)c1 (single isomer, unassigned) [Example 377, (S*)-(4-methyl-1-(4-methylpyridin-2-yl)-6,7-dihydro-1H-[1,2,3]triazolo[4,5-c]pyridin-5(4H)-yl)(3-(trifluoromethoxy)phenyl)methanone] | – | 5.51 | – | 8.1 | – | – | –
